According to patent US20130252930A1 (BIOMARIN PHARMACEUTICAL INC., priority 2010, published 2013):

Key:
[1] = target: T1, CYP17 (human testicular microsome) (Homo sapiens, UniProt P05093); experiment: CYP17 enzymatic assay (IC50) (Biological Example 4); assay type: biochemical; conditions: human testicular microsome, DHEA by ELISA; read-out: Biological Example No. 4: CYP17 enzymatic assay IC50
T1 construct: using microsomal fraction from human testis (Celsis Cat #S00110) as the enzyme source; tissue Celsis S00110; host or cells: human testis microsomal fraction
T1 sequence (P05093 1-508): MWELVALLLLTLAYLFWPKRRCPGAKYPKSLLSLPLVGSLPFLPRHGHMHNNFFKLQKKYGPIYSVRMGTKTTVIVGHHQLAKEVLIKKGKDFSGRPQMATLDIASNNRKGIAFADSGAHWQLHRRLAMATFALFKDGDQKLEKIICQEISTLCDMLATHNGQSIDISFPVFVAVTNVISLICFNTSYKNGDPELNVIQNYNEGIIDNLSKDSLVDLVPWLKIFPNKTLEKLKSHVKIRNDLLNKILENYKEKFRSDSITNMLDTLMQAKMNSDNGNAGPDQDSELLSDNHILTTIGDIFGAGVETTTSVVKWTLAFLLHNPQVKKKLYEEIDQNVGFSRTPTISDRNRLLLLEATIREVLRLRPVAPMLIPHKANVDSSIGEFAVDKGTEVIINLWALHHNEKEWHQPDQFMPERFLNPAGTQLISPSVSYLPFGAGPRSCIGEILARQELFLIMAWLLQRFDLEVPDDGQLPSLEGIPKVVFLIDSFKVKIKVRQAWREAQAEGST

[2] = Rat liver microsome stability assay (Biological Example 8a); conditions: liver microsomes, pH 7.4
Method: Each test compound (1.5 μM, 30 μL) was incubated with rat (BD Gentest, Cat No. 452501) or human (BD Gentest, Cat No. 452161) liver microsomes (0.75 mg/mL, 0.1 M potassium phosphate buffer, 1.0 mM EDTA, pH 7.4) in 96 well plates. The reaction was started with addition of excess NADPH (5 mg/mL, 15 μL in 0.1 M potassium phosphate buffer, 1.0 mM EDTA, pH 7.4), the total volume is 45 μL (compound final concentration was 1 μM). The incubations were terminated at time zero and at 5, 15, 30, and 60 minutes by addition of 135 μL/excess ACN containing internal standard (1S). After quenching, the reaction mixtures was centrifuged (Eppendorf Centrifuge 5810R) at 3220×g for 10 min (4° C.). 50 μL of the supernatant was transferred from each well into a 96-well sample plate containing 50 μL of ultra-pure water (Millipore) for LC-MS/MS analysis. The half-life T1/2=0.693/K (K is the rate constant from a plot of log [concentration] vs. incubation time) was calculated.

[3] = target: T1, CYP17 (human testicular microsome); experiment: CYP17 enzymatic assay (% inhibition at 10 nM), version 1 (Biological Example 5); assay type: biochemical; conditions: 10 nM compound, DHEA by ELISA, read-out: Biological Example No. 5: CYP17 percent inhibition at 10 nM (version 1)
CYP17 (H295R cells) = target: T2, CYP17 (H295R cells) (Homo sapiens, UniProt P05093); experiment: CYP17 cellular assay (IC50), testosterone in H295R cells (Biological Example 7); assay type: cell-based; conditions: H295R cells, testosterone; read-out: CYP17 cellular assay IC50 (Biological Example No. 7)
T2 construct: endogenous in cells; host or cells: H295R cells
T2 sequence (P05093 1-508): T1 sequence (P05093 1-508)
In short: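 Testosterone in the medium was quantified by ELISA after 24 h at 37 °C with test compound (final 100, 10, 1, 0.1 nM; serum-free DMEM/F-12, ITS+, 0.1% methanol). The H295R cells had been seeded and grown 24 h beforehand; vehicle wells served as control.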

[4] = system: rat Cyp11B enzyme (rat adrenal mitochondria); experiment: CYP11B enzymatic assay (% inhibition at 100 nM) (Biological Example 9); assay type: biochemical; conditions: compound at 100 nM
In short: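 Sprague Dawley rat adrenal mitochondria were incubated with compound at 100 nM, 0.5 mM NADPH and 0.1 μM 11-deoxycortisol (pH 7.4 Tris buffer) for 60 min at 37 °C. Cortisol was measured by ELISA and corrected by subtracting the no-NADPH background. % inhibition is relative to the no-compound reaction.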

[5] = target: T3, Cyp21 enzyme (Human HEK 293-Cyp21 stable transfected cells) (Homo sapiens, UniProt P08686); experiment: CYP21-HEK293 enzymatic assay (% inhibition at 100 nM) (Biological Example 10); assay type: cell-based; conditions: compound at 100 nM; HEK 293-Cyp21 cells; read-out: CYP21-HEK293 enzymatic assay % inhibition at 100 nM (Biological Example No. 10)
T3 construct: expressed in transfected cells
T3 sequence (P08686 1-495): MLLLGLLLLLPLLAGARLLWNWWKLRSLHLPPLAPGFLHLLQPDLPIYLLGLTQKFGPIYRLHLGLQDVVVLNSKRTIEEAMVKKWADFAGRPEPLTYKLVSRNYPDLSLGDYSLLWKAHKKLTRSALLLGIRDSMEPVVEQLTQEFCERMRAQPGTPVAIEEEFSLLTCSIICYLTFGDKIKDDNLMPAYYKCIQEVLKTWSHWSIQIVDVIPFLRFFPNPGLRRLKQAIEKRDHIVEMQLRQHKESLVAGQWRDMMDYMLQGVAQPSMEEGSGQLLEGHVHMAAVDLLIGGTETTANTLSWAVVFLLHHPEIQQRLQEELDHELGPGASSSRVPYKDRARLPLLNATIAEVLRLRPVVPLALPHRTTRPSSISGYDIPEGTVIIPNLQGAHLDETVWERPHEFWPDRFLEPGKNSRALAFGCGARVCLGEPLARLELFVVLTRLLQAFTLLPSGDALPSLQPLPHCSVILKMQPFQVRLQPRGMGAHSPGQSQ
In short: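 Percent inhibition at 100 nM: DOC in conditioned medium was read by ELISA at 450 nm and quantified from a standard curve. Stably transfected human Cyp21 HEK293 cells were pretreated 5 h with compound or 1% methanol mock, then given 10 μM final progesterone for 20 h at 37 °C.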

[6] = target: T1, CYP17 (human testicular microsome); experiment: CYP17 enzymatic assay (% inhibition at 1 nM) (Biological Example 12); assay type: biochemical; conditions: compound at 1 nM, read-out: CYP17 enzymatic assay % inhibition at 1 nM (Biological Example No. 12)
Method: The assays were performed in 96-well plates. Typical assays were carried out in total 100 μL volume that included test compounds at 1 nM concentration, 1× reaction buffer, 0.5 mM NADPH, 1 μM 17α-hydroxypregnenolone, and 2.5 μL of human testicular microsome (Celsis. Cat #S00110). Reaction without test compound served as a positive control. Reactions were allowed to incubate at 37° C. for 90 min with gentle shaking. The reaction was stopped by directly applying the enzymatic reaction mixture to ELISA plate for evaluation of DHEA concentration according to manufacturer's protocol (IBL America). A standard curve (OD450 vs. DHEA concentration) was generated using purified DHEA. […] Percent inhibition (inhibition %) of the compound was calculated using normalized DHEA concentration based on following formula: 100−([DHEA] of compound/[DHEA] of positive control*100).

Cc1cncc(C2=CC[C@H]3[C@@H]4CC(=O)C5CCCC[C@]5(C)[C@H]4CC[C@]23C)c1 (stereo partly drawn) [Compound 71, (10R,13S)-10,13-dimethyl-17-(5-methylpyridin-3-yl)-2,3,4,5,7,8,9,11,12,13,14,15-dodecahydro-1H-cyclopenta[a]phenanthren-6(10H)-one]
IC50 [1]: < 11 nM | half-life at 1 μM [2]: 1 to 10 min

C[C@]12CCCCC[C@@H]1CC[C@@H]1[C@@H]2CC[C@]2(C)C(n3ccnc3)=CC[C@@H]12 [Compound 97, 1-((3aS,3bR,5aR,10aS,10bS,12aS)-10a,12a-dimethyl-3,3a,3b,4,5,5a,6,7,8,9,10,10a,10b,11,12,12a-hexadecahydrocyclohepta[a]cyclopenta[f]naphthalen-1-yl)-1H-imidazole]
IC50 [1]: < 11 nM | inhibition at 0.01 µM [3]: 50 to 80% | half-life at 1 μM [2]: 10 to 60 min

C[C@]12CCCOC[C@H]1CC[C@@H]1[C@@H]2CC[C@]2(C)C(c3cccnc3)=CC[C@@H]12 [Compound 121, 3-((5aR,5bS,7aS,10aS,10bR,12aS)-5a,7a-dimethyl-3,4,5,5a,5b,6,7,7a,10,10a,10b,11,12,12a-tetradecahydro-1H-cyclopenta[5,6]naphtho[2,1-c]oxepin-8-yl)pyridine]
IC50 [1]: < 11 nM | inhibition at 0.01 µM [3]: > 80% | half-life at 1 μM [2]: 1 to 10 min

CCOc1cncc(C2=CC[C@H]3[C@@H]4CC[C@H]5COCCC[C@]5(C)[C@H]4CC[C@]23C)c1 [Compound 125, 3-((5aR,5bS,7aS,10aS,10bR,12aR)-5a,7a-dimethyl-3,4,5,5a,5b,6,7,7a,10,10a,10b,11,12,12a-tetradecahydro-1H-cyclopenta[5,6]naphtho[2,1-c]oxepin-8-yl)-5-ethoxypyridine]
IC50 [1]: < 11 nM | inhibition at 0.01 µM [3]: 50 to 80% | half-life at 1 μM [2]: 1 to 10 min

COc1cncc(C2=CC[C@H]3[C@@H]4CC(=O)C5CCCC[C@]5(C)[C@H]4CC[C@]23C)c1 (stereo partly drawn) [Compound 72, (10R,13S)-17-(5-methoxypyridin-3-yl)-10,13-dimethyl-2,3,4,5,7,8,9,11,12,13,14,15-dodecahydro-1H-cyclopenta[a]phenanthren-6(10H)-one]
IC50 [1]: < 11 nM | half-life at 1 μM [2]: 1 to 10 min

CCc1cncc(C2=CC[C@H]3[C@@H]4CCN5C(=O)CCCC[C@]5(C)[C@H]4CC[C@]23C)c1 [Compound 41, (11aR,13aS)-1-(5-ethylpyridin-3-yl)-11a,13a-dimethyl-3b,4,5,8,9,10,11,11a,11b,12,13,13a-dodecahydro-3H-azepino[2,1-a]cyclopenta[f]isoquinolin-7(3aH)-one]
IC50 [1]: < 11 nM | inhibition at 0.01 µM [3]: > 80% | half-life at 1 μM [2]: 1 to 10 min

CN1C(=O)COC[C@@]2(C)C1CC[C@@H]1[C@@H]2CC[C@]2(C)C(c3cccnc3)=CC[C@@H]12 (stereo partly drawn) [Compound 98, (5aR,5bS,7aS,10aS,10bS)-1,5a,7a-trimethyl-8-(pyridin-3-yl)-5,5a,5b,6,7,7a,10,10a,10b,11,12,12a-dodecahydro-1H-cyclopenta[5,6]naphtho[2,1-e][1,4]oxazepin-2(3H)-one]
IC50 [1]: < 11 nM | inhibition at 0.01 µM [3]: 50 to 80% | half-life at 1 μM [2]: 1 to 10 min

COc1cncc(C2=CC[C@H]3[C@@H]4CC[C@H]5CCOCC[C@]5(C)[C@H]4CC[C@]23C)c1 [Compound 122, 3-((5aS,5bS,7aS,10aS,10bR,12aS)-5a,7a-dimethyl-2,4,5,5a,5b,6,7,7a,10,10a,10b,11,12,12a-tetradecahydro-1H-cyclopenta[5,6]naphtho[1,2-d]oxepin-8-yl)-5-methoxypyridine]
IC50 [1]: < 11 nM | inhibition at 0.01 µM [3]: 50 to 80% | half-life at 1 μM [2]: 1 to 10 min

Cc1ccncc1C1=CC[C@H]2[C@@H]3CC[C@H]4CC(=O)NCC[C@]4(C)[C@H]3CC[C@]12C [Compound 462, (5aS,5bS,7aS,10aS,10bR,12aS)-5a,7a-dimethyl-8-(4-methylpyridin-3-yl)-3,4,5,5a,5b,6,7,7a,10,10a,10b,11,12,12a-tetradecahydrocyclopenta[5,6]naphtho[1,2-d]azepin-2(1H)-one]
IC50 (CYP17 (H295R cells)): < 15 nM | CYP11B enzymatic assay % inhibition at 100 nM (Biological Example No. 9) [4]: T (T means the compound had a percent inhibition of less than 32% when tested at 100 nM) | inhibition at 0.1 µM [5]: < 30% | inhibition at 0.001 µM [6]: 10 to 50%

Cc1cncc(C2=CC[C@H]3[C@@H]4CC[C@H]5COCCC[C@]5(C)[C@H]4CC[C@]23C)c1 [Compound 127, 3-((5aR,5bS,7aS,10aS,10bR,12aR)-5a,7a-dimethyl-3,4,5,5a,5b,6,7,7a,10,10a,10b,11,12,12a-tetradecahydro-1H-cyclopenta[5,6]naphtho[2,1-c]oxepin-8-yl)-5-methylpyridine]
IC50 [1]: < 11 nM | inhibition at 0.01 µM [3]: 50 to 80% | half-life at 1 μM [2]: 1 to 10 min

CCc1cncc(C2=CC[C@H]3[C@@H]4CCN5CCCCC[C@]5(C)[C@H]4CC[C@]23C)c1 [Compound 48, (11aR,13aS)-1-(5-ethylpyridin-3-yl)-11a,13a-dimethyl-3a,3b,4,5,7,8,9,10,11,11a,11b,12,13,13a-tetradecahydro-3H-azepino[2,1-a]cyclopenta[f]isoquinoline]
inhibition at 0.01 µM [3]: 1 to 50% | half-life at 1 μM [2]: 1 to 10 min

Cc1cncc(C2=CC[C@H]3[C@@H]4CC[C@H]5COC(=O)CC[C@]5(C)[C@H]4CC[C@]23C)c1 [Compound 119, (5aR,5bS,7aS,10aS,10bR,12aR)-5a,7a-dimethyl-8-(5-methylpyridin-3-yl)-5,5a,5b,6,7,7a,10,10a,10b,11,12,12a-dodecahydro-1H-cyclopenta[5,6]naphtho[2,1-c]oxepin-3(4H)-one]
inhibition at 0.01 µM [3]: 1 to 50% | half-life at 1 μM [2]: 1 to 10 min

Cc1cncc(C2=CC[C@H]3[C@@H]4CC(O)C5CCCC[C@]5(C)[C@H]4CC[C@]23C)c1 (stereo partly drawn) [Compound 70, (10R,13S)-10,13-dimethyl-17-(5-methylpyridin-3-yl)-2,3,4,5,6,7,8,9,10,11,12,13,14,15-tetradecahydro-1H-cyclopenta[a]phenanthren-6-ol]
IC50 [1]: < 11 nM | half-life at 1 μM [2]: 1 to 10 min

C[C@]12CCNC(=O)C=C1CC[C@@H]1[C@@H]2CC[C@]2(C)C(n3ncnn3)=CC[C@@H]12 [Compound 63]
inhibition at 0.01 µM [3]: > 80% | half-life at 1 μM [2]: 1 to 10 min

CCCOc1cncc(C2=CC[C@H]3[C@@H]4CCN5CCCCC[C@]5(C)[C@H]4CC[C@]23C)c1 [Compound 46, (11aR,13aS)-11a,13a-dimethyl-1-(5-propoxypyridin-3-yl)-3a,3b,4,5,7,8,9,10,11,11a,11b,12,13,13a-tetradecahydro-3H-azepino[2,1-a]cyclopenta[f]isoquinoline]
inhibition at 0.01 µM [3]: 50 to 80% | half-life at 1 μM [2]: 10 to 60 min
